{
  "source": "patent US8232301B2",
  "about": "“Pesticidal compositions” (Dow AgroScience, LLC., priority 2008, dated 2012)",
  "system": "green peach aphid, Myzus persicae (GPA)",
  "test": "Foliar spray test of Compound A, nonionic surfactant and AMS combinations on green peach aphid on cabbage",
  "format": "in vivo",
  "conditions": "for Aphid count/plant / % Control (negative values to 0) / Calculated Colby Value: Rep 1-4; for T-Test Results (synergy mark): measured vs Colby, two-sided T-test",
  "experimental": "Materials and Methods. Solutions of nonionic surfactant (Atlox 4991 0.125% and 0.25% V/V; 1250 and 2500 ppm respectively) and ammonium sulfate (“AMS” 10,200 and 20,400 ppm) were prepared in 500 mL of water. Water used to prepare all solutions was obtained from a Milli Q water purification system. Combination mixtures were created by adding surfactant to aliquots of AMS and water solution to create all two-way combinations of surfactant and AMS. A 500 ppm stock solution of Compound A in water was prepared by adding […] of Compound A to 40 mL of water. 62.4 μL of this 500 ppm solution was added to 20 mL of each AMS, surfactant, or surfactant and AMS solution to create 1.56 ppm Compound A high rate solutions. These high rate solutions of Compound A and surfactant, Compound A and AMS, or Compound A, AMS, and surfactant, were serially diluted in two-fold increments with the appropriate surfactant, AMS, or AMS and surfactant combination solutions, to create a dilution series from 1.56 to 0.19 ppm. A dilution series of Compound A in water with no surfactant or AMS was also prepared. All solutions of surfactant, AMS, or surfactant and AMS, were tested without Compound A. Two-to-three-leaf stage cabbage plants were infested on day 1 with green peach aphid, Myzus persicae (GPA), by transferring aphid infested foliage to each plant. A uniform number of aphids were transferred based on visual inspection of the infested foliage. Plants were sprayed on all surfaces to wet using a hand held aspirator type sprayer on day 2. Four replicates of each treatment combination were sprayed and all stages of live aphids on each plant were counted on day 4. Data were converted to percent control based on the number of aphids in the unsprayed check treatment. Counts of aphids on unsprayed check plants were used to calculate control for surfactant and AMS solutions. Additionally, the average aphid count on the unsprayed check treatment was used to calculate percent control values for plants sprayed with only Compound A. Aphid counts from plants treated with combinations of Compound A and AMS, surfactant, or AMS and surfactant, were converted to percent control by using the average aphid count from the unsprayed check treatment. Negative percent control values were changed to zero percent control values before assessing treatment combinations for synergy. […] Measured efficacy (percent Control) data were compared to calculated Colby values (Colby, S. R. 1967. Calculating Synergistic and Antagonistic Responses of Herbicide Combinations. Weeds 15:20-22) using a two-sided T-test (Minitab).",
  "key": {"[1]": {"conditions": "A 0.19 ppm + NS 1250 ppm + AMS 10,200 ppm"}, "[2]": {"conditions": "A 0.19 ppm + NS 1250 ppm + AMS 20,400 ppm"}, "[3]": {"conditions": "A 0.19 ppm + NS 2500 ppm + AMS 10,200 ppm"}, "[4]": {"conditions": "A 0.19 ppm + NS 2500 ppm + AMS 20,400 ppm"}, "[5]": {"conditions": "treatment #12: A 0.19 ppm + AMS 20,400 ppm"}, "[6]": {"conditions": "treatment #14: A 0.19 ppm + NS 1250 ppm + AMS 20,400 ppm"}, "[7]": {"conditions": "treatment #15: A 0.19 ppm + NS 2500 ppm + AMS 20,400 ppm"}, "[8]": {"conditions": "treatment #16: A 0.19 ppm + NS 1250 ppm + AMS 10,200 ppm"}},
  "note": "“And” between values parts separate entries of the source, which are not always exact repeats. Equal values may be shown once. Marks after values point to notes of the source that are not given here.",
  "data": [
    {"smiles": "N.N.O=S(=O)(O)O", "note": "[AMS, ammonium sulfate]", "values": [
      {"measurement": "Aphid count/plant", "setting": "treatment #4: AMS 20,400 ppm alone", "result": "35 and 36 and 38 and 31"},
      {"measurement": "% Control (negative values to 0)", "setting": "treatment #5: AMS 10,200 ppm alone", "result": 0.0, "unit": "%"}
    ]},
    {"smiles": "CC(c1ccc(C(F)(F)F)nc1)S(C)(=O)=NC#N", "note": "(stereo not drawn) [Compound A]", "values": [
      {"measurement": "% Control Colby Calculated, Mean", "setting": "A 0.19 ppm + AMS 10,200 ppm", "result": 43, "unit": "%"},
      {"measurement": "% Control Measured, Mean", "setting": "A 0.19 ppm + AMS 10,200 ppm", "result": 32, "unit": "%"},
      {"measurement": "% Control Colby Calculated, Mean", "setting": "A 0.19 ppm + AMS 20,400 ppm", "result": 55.58, "unit": "%"},
      {"measurement": "% Control Measured, Mean", "setting": "A 0.19 ppm + AMS 20,400 ppm", "result": 38.3, "unit": "%"},
      {"measurement": "% Control Colby Calculated, Mean", "setting": "A 0.19 ppm + NS 1250 ppm", "result": 58.28, "unit": "%"},
      {"measurement": "% Control Measured, Mean", "setting": "A 0.19 ppm + NS 1250 ppm", "result": 76.4, "unit": "%"},
      {"measurement": "% Control Colby Calculated, Mean", "setting": "[1]", "result": 58.28, "unit": "%"},
      {"measurement": "% Control Measured, Mean", "setting": "[1]", "result": 93.28, "unit": "%"},
      {"measurement": "T-Test Results (synergy mark)", "setting": "[1]", "result": "T = 6.60 P = 0.0027***"},
      {"measurement": "% Control Colby Calculated, Mean", "setting": "[2]", "result": 60.1, "unit": "%"},
      {"measurement": "% Control Measured, Mean", "setting": "[2]", "result": 91.1, "unit": "%"},
      {"measurement": "T-Test Results (synergy mark)", "setting": "[2]", "result": "T = 3.26 P = 0.022***"},
      {"measurement": "% Control Colby Calculated, Mean", "setting": "A 0.19 ppm + NS 2500 ppm", "result": 57, "unit": "%"},
      {"measurement": "% Control Measured, Mean", "setting": "A 0.19 ppm + NS 2500 ppm", "result": 63.7, "unit": "%"},
      {"measurement": "% Control Colby Calculated, Mean", "setting": "[3]", "result": 57, "unit": "%"},
      {"measurement": "% Control Measured, Mean", "setting": "[3]", "result": 80, "unit": "%"},
      {"measurement": "% Control Colby Calculated, Mean", "setting": "[4]", "result": 63.3, "unit": "%"},
      {"measurement": "% Control Measured, Mean", "setting": "[4]", "result": 96.33, "unit": "%"},
      {"measurement": "T-Test Results (synergy mark)", "setting": "[4]", "result": "T = 3.68 P = 0.035***"},
      {"measurement": "synergy", "setting": "A 0.19 ppm combined with AMS and surfactant, three of 4 possible mixtures statistically supported", "result": "significant synergy"},
      {"measurement": "synergy", "setting": "A 0.19 ppm combined with surfactant or AMS (two-way mixtures), 0.05% level", "result": "no instances where synergy could be supported"},
      {"measurement": "efficacy", "setting": "A at concentrations of 1.56, 0.78 and 0.39, not combined with surfactant or AMS", "result": "great enough that identifying synergy was not practical"},
      {"measurement": "% Control (negative values to 0)", "setting": "treatment #10: A 0.19 ppm + NS 1250 ppm", "result": "85.4% and 98.1% and 64.3% and 57.9%"},
      {"measurement": "Calculated Colby Value", "setting": "treatment #10: A 0.19 ppm + NS 1250 ppm, predicted % control", "result": "53.6% and 63.2% and 60.2% and 56.1%"},
      {"measurement": "Aphid count/plant", "setting": "[5]", "result": "19 and 24 and 20"},
      {"measurement": "Calculated Colby Value", "setting": "[5]", "result": "56.5% and 64.4% and 43.9% and 57.5%"},
      {"measurement": "Aphid count/plant", "setting": "treatment #13: A 0.19 ppm + AMS 10,200 ppm", "result": "23 and 30 and 28 and 17"},
      {"measurement": "% Control (negative values to 0)", "setting": "[6]", "result": "97.9% and 98.1% and 100.0% and 68.4%"},
      {"measurement": "Calculated Colby Value", "setting": "[6]", "result": "53.6% and 63.2% and 48.7% and 74.8%"},
      {"measurement": "% Control (negative values to 0)", "setting": "[7]", "result": "95.8% and 100.0% and 89.5%"},
      {"measurement": "Calculated Colby Value", "setting": "[7]", "result": "60.2% and 63.2% and 43.9% and 85.8%"},
      {"measurement": "% Control (negative values to 0)", "setting": "[8]", "result": "97.9% and 96.3% and 100.0% and 78.9%"},
      {"measurement": "Calculated Colby Value", "setting": "[8]", "result": "53.6% and 63.2% and 60.2% and 56.1%"},
      {"measurement": "% Control (negative values to 0)", "setting": "treatment #17: A 0.19 ppm + NS 2500 ppm + AMS 10,200 ppm", "result": "72.9% and 98.1% and 85.7% and 63.2%"}
    ]}
  ]
}
